Molecular target: Phospholipase A2 (Naja mossambica)
Assay: Binding affinity against phospholipase A2 of Naja mocambique mocambique

Ki [µM] | SMILES
15 | CCCCCCCCNC(=O)Oc1ccc(OC(=O)NCCCCCCCC)cc1 [Octyl-carbamic acid 4-octylcarbamoyloxy-phenyl ester]
4 | CCCCCCCCNC(=O)Oc1cccc(OC(=O)NCCCCCCCC)c1 [Octyl-carbamic acid 3-octylcarbamoyloxy-phenyl ester]
